Measurements taken from ChEMBL document CHEMBL1201862, “PubChem BioAssay data set” (2004).
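Tested at 5 concentrations; 48 h exposure; 96-well plates; endpoints linearly interpolated, else capped at highest concentration. GI50 is the concentration that inhibits growth by half.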 Active and inactive are the calls of the source. No stated cut-off is given here; in the data, active = GI50 up to about 1.1 µM and inactive = higher.

Assays:
Assay in all cases: growth of human tumour cells (NCI), 48 h
KM-20L2 = system: KM-20L2
DU-145 = system: DU-145
OVCAR-4 = system: OVCAR-4
DMS-114 = system: DMS-114
NCI/ADR-RES = system: NCI/ADR-RES
DLD-1 = system: DLD-1
SNB-19 = system: SNB-19
DMS-273 = system: DMS-273
OVCAR-5 = system: OVCAR-5
T47D = system: T47D
786-0 = system: 786-0
PC-3 = system: PC-3
MDA-N = system: MDA-N
HL-60 = system: HL-60
HT-29 = system: HT-29
MDA-MB-435 = system: MDA-MB-435
A498 = system: A498
SK-MEL-5 = system: SK-MEL-5
SK-MEL-28 = system: SK-MEL-28
HOP-62 = system: HOP-62

Row | SMILES | GI50 (KM-20L2) | GI50 (DU-145) | GI50 (OVCAR-4) | GI50 (DMS-114) | GI50 (NCI/ADR-RES) | GI50 (DLD-1) | GI50 (SNB-19) | GI50 (DMS-273) | GI50 (OVCAR-5) | GI50 (T47D) | GI50 (786-0) | GI50 (PC-3) | GI50 (MDA-N) | GI50 (HL-60) | GI50 (HT-29) | GI50 (MDA-MB-435) | GI50 (A498) | GI50 (SK-MEL-5) | GI50 (SK-MEL-28) | GI50 (HOP-62)
1 | CCSC(=O)N1c2ccc(OC)cc2C=CC1C#N (stereo not given) | < 0.01 µM (active) | 0.00168 µM (active) | 0.308 µM (active) | < 0.01 µM (active) | 0.00131 µM (active) | < 0.01 µM (active) | 0.0176 µM (active) | < 0.01 µM (active) | < 0.00993 µM (active) | 228 µM (inactive) | 0.00344 µM (active) | 0.00364 µM (active) | 0.00306 µM (active) | 0.00347 µM (active) | 0.00139 µM (active) | 0.00292 µM (active) | < 0.01 µM (active) | 0.00152 µM (active) | 0.308 µM (active) | 0.00841 µM (active)
2 | CCN1C(=O)N2C(OC)c3ccccc3C(Br)C2(OC)C1=O (stereo not given) | > 100 µM (inactive) |  | > 100 µM (inactive) | > 100 µM (inactive) |  | > 100 µM (inactive) | > 100 µM (inactive) | > 100 µM (inactive) | > 100 µM (inactive) |  |  |  |  | > 100 µM (inactive) |  |  | > 100 µM (inactive) | > 100 µM (inactive) | > 100 µM (inactive) | > 100 µM (inactive)
3 | CCC1=C(C[C@H]2NCCc3cc(OC)c(OC)cc32)C[C@H]2c3cc(OC)c(OC)cc3CCN2C1 | 0.0288 µM (active) |  | 0.0143 µM (active) | 0.0166 µM (active) |  | 0.0296 µM (active) |  | 0.0274 µM (active) | 0.0521 µM (active) |  | 0.0261 µM (active) |  |  | 0.0247 µM (active) | 0.0272 µM (active) |  | 0.0181 µM (active) | 0.0234 µM (active) | 0.0365 µM (active) | 0.0286 µM (active)
4 | CSc1nc2c(ncn2C2OC(CO)C(O)C(O)C2O)c(=O)n1C (stereo not given) | > 100 µM (inactive) |  | > 100 µM (inactive) | > 100 µM (inactive) | > 100 µM (inactive) | > 100 µM (inactive) | > 100 µM (inactive) | > 100 µM (inactive) | > 100 µM (inactive) |  |  |  |  | > 100 µM (inactive) | > 100 µM (inactive) |  | > 100 µM (inactive) | > 100 µM (inactive) | > 100 µM (inactive) | > 100 µM (inactive)
5 | CC1(C)OC2C(CO)OC(N/C(=N/C#N)Oc3ccccc3)C2O1 (stereo not given) | > 100 µM (inactive) |  | > 100 µM (inactive) | > 100 µM (inactive) |  | > 100 µM (inactive) | > 100 µM (inactive) | > 100 µM (inactive) | > 100 µM (inactive) |  | > 10 µM (inactive) |  |  | > 100 µM (inactive) | > 100 µM (inactive) |  |  | > 100 µM (inactive) | > 100 µM (inactive) | > 100 µM (inactive)
6 | O=c1n(C2CCCCC2)c(=C(Cl)Cl)c(=C(Cl)Cl)n1C1CCCCC1 | > 100 µM (inactive) |  | > 100 µM (inactive) | 53.1 µM (inactive) |  | > 100 µM (inactive) | > 100 µM (inactive) | > 100 µM (inactive) | > 100 µM (inactive) |  | > 100 µM (inactive) |  |  | 39.6 µM (inactive) | > 100 µM (inactive) |  | > 100 µM (inactive) | > 100 µM (inactive) | > 100 µM (inactive) | > 100 µM (inactive)
7 | COC(=O)c1c(-c2ccccc2)cc2c3cc(-c4ccccc4)c(C(=O)OC)n3c3ccccc3n12 | > 100 µM (inactive) |  | 22.6 µM (inactive) | > 100 µM (inactive) |  | > 100 µM (inactive) | > 100 µM (inactive) | 79.3 µM (inactive) | > 100 µM (inactive) |  | > 100 µM (inactive) |  |  | > 100 µM (inactive) | > 100 µM (inactive) |  | > 100 µM (inactive) | > 100 µM (inactive) | > 100 µM (inactive) | > 100 µM (inactive)
8 | C#Cc1ccccc1C(=O)OC | > 100 µM (inactive) |  | > 100 µM (inactive) | 89.9 µM (inactive) |  | > 100 µM (inactive) | > 100 µM (inactive) | > 100 µM (inactive) | > 100 µM (inactive) |  |  |  |  | > 100 µM (inactive) | > 100 µM (inactive) |  | > 100 µM (inactive) | > 100 µM (inactive) | > 100 µM (inactive) | > 100 µM (inactive)
9 | CC(=O)NNc1nc(C)c(C(=O)/C=C/c2cccc([N+](=O)[O-])c2)s1 | > 100 µM (inactive) |  |  | > 100 µM (inactive) |  | > 100 µM (inactive) | > 100 µM (inactive) | > 100 µM (inactive) | > 100 µM (inactive) |  | > 100 µM (inactive) |  |  | > 100 µM (inactive) | > 100 µM (inactive) |  | > 100 µM (inactive) | > 100 µM (inactive) | > 100 µM (inactive) | > 100 µM (inactive)
10 | COC(=O)C1=C(\O)C[C@@]2(C)CC[C@@H](C(=O)OC)C2C/C=C\1C(=O)OC (stereo not given in full) | > 100 µM (inactive) |  | > 100 µM (inactive) | 29.4 µM (inactive) |  | > 100 µM (inactive) | > 100 µM (inactive) | > 100 µM (inactive) | 46.3 µM (inactive) |  | > 100 µM (inactive) |  |  | 49.5 µM (inactive) | > 100 µM (inactive) |  | 23 µM (inactive) | 48.9 µM (inactive) | 47 µM (inactive) | > 100 µM (inactive)
11 | O=NN1C(c2ccccc2)C2CCCC(C2=O)C1c1ccccc1 (stereo not given) | 16 µM (inactive) |  | 23.9 µM (inactive) | 32.5 µM (inactive) | 32.7 µM (inactive) | 43.3 µM (inactive) | 42.6 µM (inactive) | 23.8 µM (inactive) | 37.2 µM (inactive) |  |  |  |  | 19.3 µM (inactive) | 18.1 µM (inactive) |  | 34 µM (inactive) | 18.7 µM (inactive) | 21.7 µM (inactive) | 27 µM (inactive)
12 | CCOC(=O)NC(=O)c1cn(CCCCCCOC(=O)NCCCCCCNC(=O)OCCCCCCn2cc(C(=O)NC(=O)OCC)c(=O)[nH]c2=O)c(=O)[nH]c1=O | > 100 µM (inactive) |  | > 100 µM (inactive) | 67.9 µM (inactive) |  | > 100 µM (inactive) | > 100 µM (inactive) | > 100 µM (inactive) |  |  | > 100 µM (inactive) |  |  | > 100 µM (inactive) | > 100 µM (inactive) |  | > 100 µM (inactive) | > 100 µM (inactive) | > 100 µM (inactive) | > 100 µM (inactive)
13 | CCOC(=O)C1C=C2O[C@@H]3OC4(CCCCC4)O[C@@H]3C2[C@H]2C(=O)C=CC(=O)[C@@]12C(=O)OC (stereo not given in full) | 14.5 µM (inactive) |  | 9.31 µM (inactive) | 4.75 µM (inactive) |  | 16.6 µM (inactive) | 8.38 µM (inactive) | 8.65 µM (inactive) | 17.1 µM (inactive) |  | 7.21 µM (inactive) |  |  | 2.25 µM (inactive) | 6.9 µM (inactive) |  | 18.3 µM (inactive) | 19.2 µM (inactive) | 15.6 µM (inactive) | 20 µM (inactive)
14 | Nc1nc2[nH]c(=O)cnc2c(=O)[nH]1 [ISOXANTHOPTERIN] | > 72.4 µM (inactive) |  | > 125 µM (inactive) | > 125 µM (inactive) | > 125 µM (inactive) | > 125 µM (inactive) | > 125 µM (inactive) | > 125 µM (inactive) | > 99.1 µM (inactive) |  |  |  |  | > 125 µM (inactive) | > 125 µM (inactive) |  | > 125 µM (inactive) | > 125 µM (inactive) | > 125 µM (inactive) | > 125 µM (inactive)
